Inhibition data for 30 molecules are collected here from patent publication US8916599B2, “1H-benz imidazole-5-carboxamides as anti-inflammatory agents” (Orexo AB, priority 2008, dated 2014).

One assay has as its target T1, recombinant human mPGES-1 (Homo sapiens, UniProt O14684).
T1 construct: made in house; host or cells: Rosetta E. coli (microsomal/membrane fraction)
T1 sequence (O14684 1-152): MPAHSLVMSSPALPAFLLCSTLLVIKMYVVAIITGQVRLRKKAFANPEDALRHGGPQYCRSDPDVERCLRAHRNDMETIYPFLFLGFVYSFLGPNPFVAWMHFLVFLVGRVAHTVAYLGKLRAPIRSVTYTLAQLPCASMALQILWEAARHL
As to the kind of experiment: mPGES-1 inhibition test (microsomes, PGH2 substrate, HTRF detection of PGE2). In kind it is biochemical. The following applies: inhibition of mPGES-1 at 1 μM (marked in cell). The protocol: Microsomes from Rosetta E. coli bacteria expressing recombinant human mPGES-1 is dissolved in 0.1 M KPi pH 7.4 buffer containing 2.5 mM GSH. 50 μl of the enzyme is subsequently dispensed in a 384-well plate. 0.5 μl of the inhibitor dissolved in DMSO at is thereafter added to each well and incubated for 25 minutes at room temperature. Subsequently, 2 μl of PGH2 dissolved in an appropriate solvent is added to each well and after one minute the acidified stop solution containing FeCl2 is added. 4 μl of the total volume is transferred to a separate plate and diluted 750-fold in two separate steps before HTRF detection of PGE2.
The HTRf detection is performed by the use of a commercially available kit from CisBio essentially according to the manufacturer's protocol. Briefly, 10 μl of the diluted sample is transferred to a white 384-well plate. 5 μl of d2 and 5 μl Eu3+-Cryptate labeled anti-PGE2 is added to each well containing samples by the use of a Multidrop. The plate is covered with a plastic self-adhesive film, centrifuged at 1200 rpm for 1 minute and subsequently stored at +4° C. over night.
After over night incubation the fluorescence is measured by the use of an appropriate microplate reader. The fluorescence of europium cryptate, and d2 are measured using the following excitation and emission wavelength, europium cryptate: λmax^ex=307 nm, λmax^em=620 nm and d2: λmax^ex=620 nm, λmax^em=665 nm), respectively. The extent of the specific FRET is measured as a ratio of the emission intensity at 665 nm vs. that at 620 nm. A standard curve using synthetic PGE2 is used to quantify the amount of PGE2 in unknown samples.
For orientation: In TR-FRET formats the signal depends on donor and acceptor labels being close together.
For orientation: inhibition means how much of the control response was suppressed. Take `Cc1ccc(Cl)c(Nc2nc3cc(C(=O)N[C@H]4CC[C@H](C(F)(F)F)CC4)c(F)cc3n2C)c1F` [Example 629, 2-(6-Chloro-2-fluoro-3-methyl-phenylamino)-6-fluoro-N-(trans-4-trifluoromethyl-cyclohex-1-yl)-1-methyl-1H-benzimidazole-5-carboxamide]: the inhibition at 1 µM turned out to be 99%. On the same count and under the same terms, then `COc1cc2c(cc1C(=O)Nc1ccc(Br)cc1)nc(Nc1cc(F)ccc1C(F)(F)F)n2C` [Example 642, 2-(5-Fluoro-2-trifluoromethyl-phenylamino)-N-(4-bromphenyl)-6-methoxy-1-methyl-1H-benzimidazol-5-carboxamide], with 100%.

The assay is the same for the next values; noted with them: inhibition of mPGES-1 at 10 μM.
As for `Cc1cc(NC(=O)c2ccc3c(c2)nc(Nc2c(Cl)cccc2Cl)n3C)ncc1Cl` [Example 202, 2-(2,6-Dichloro-phenylamino)-1-methyl-1H-benzimidazole-5-carboxylic acid (5-chloro-4-methyl-pyridin-2-yl)-amide], the inhibition at 10 µM turned out to be 100%. On to `COc1cc2nc(Nc3c(Cl)cccc3Cl)[nH]c2cc1C(=O)NCc1ccccc1C(F)(F)F` [Example 200], for which the inhibition at 10 µM is 98%. For `Cn1c(Nc2c(Cl)cccc2Cl)nc2cc(C(=O)NC3CC4CCCCC4C3)c(F)cc21` (stereo not drawn) [Example 163, 2-(2,6-Dichloro-phenylamino)-6-fluoro-1-methyl-1H-benzimidazole-5-carboxylic acid (octahydro-inden-2-yl)-amide], the inhibition at 10 µM amounted to 100%. With `Cn1c(Nc2c(Cl)cccc2Cl)nc2cc(C(=O)NC3CCC(F)(F)CC3)ccc21` [Example 249, 2-(2,6-Dichloro-phenylamino)-1-methyl-1H-benzimidazole-5-carboxylic acid (4,4-difluoro-cyclohexyl)-amide], the inhibition at 10 µM is 96%. Still for that read-out and setting: then `COc1cc2[nH]c(Nc3c(Cl)cc(F)cc3Cl)nc2cc1C(=O)Nc1ccc(Br)cc1` [Example 581, 2-(2,6-Dichloro-4-fluoro-phenylamino)-6-methoxy-N-(4-bromo-phenyl)-1H-benzimidazole-5-carboxamide], with 100%. Same read-out and setting: the value for `O=C(Nc1ccc(Br)cc1)c1cc2nc(Nc3c(Cl)cccc3Cl)[nH]c2cc1Cl` [Example 53, 2-(2,6-Dichloro-phenylamino)-6-chloro-1H-benzimidazole-5-carboxylic acid (4-bromo-phenyl)-amide] was 100%. Still for that read-out and setting: then `CCOc1cc2c(cc1C(=O)NC1CCC3(CC1)CC3)nc(Nc1c(Cl)ccc(Cl)c1F)n2C` [Example 609, 2-(3,6-Dichloro-2-fluoro-phenylamino)-6-ethoxy-N-(spiro[2.5]oct-6-yl)-1-methyl-1H-benzimidazole-5-carboxamide], with 99%; and `CN(C)c1cc(C(F)(F)F)cc(NC(=O)c2cc3nc(Nc4c(Cl)cc(F)cc4Cl)[nH]c3cc2OCC(F)(F)F)n1` [Example 575, 2-(2,6-Dichloro-4-fluoro-phenylamino)-N-(6-dimethylamino-4-trifluoromethyl-pyridin-2-yl)-6-(2,2,2-trifluorethoxy)-1H-benzimidazole-5-carboxamide], with 82%; and `Cn1c(Nc2c(Cl)cccc2Cl)nc2cc(C(=O)Nc3cc(N4CCCC4)ccn3)c(F)cc21` [Example 554, 2-(2,6-Dichlorophenylamino)-6-fluoro-1-methyl-N-(4-(pyrrolidin-1-yl)-pyridin-2-yl)-1H-benzimidazole-5-carboxamide], with 84%. For `COc1cccnc1CNC(=O)c1cc2nc(Nc3c(Cl)cccc3Cl)n(C)c2cc1F` [Example 529, 2-(2,6-Dichlorophenylamino)-6-fluoro-N-((3-methoxypyridin-2-yl)methyl)-1-methyl-1H-benzimidazole-5-carboxamide], the inhibition at 10 µM was 93%.

As to `Cn1c(Nc2c(Cl)cccc2Cl)nc2cc(C(=O)NC34CC5CC(CC(C5)C3)C4)c(F)cc21` [Example 165, 2-(2,6-Dichloro-phenylamino)-6-fluoro-1-methyl-1H-benzimidazole-5-carboxylic acid adamantan-1-ylamide], the inhibition at 10 µM stood at 98%. The same measure, in the same setting: the value for `Cc1cccc(C)c1Nc1nc2cc(C(=O)Nc3ccc(Br)cc3)ccc2n1C` [compound 318] was 100%; that for `Cn1c(Nc2c(Cl)cccc2Cl)nc2cc(C(=O)NC3CCC(C(F)(F)F)CC3)ccc21` (stereo not drawn) [Example 256, 2-(2,6-Dichloro-phenylamino)-1-methyl-1H-benzimidazole-5-carboxylic acid (4-trifluoromethyl-cyclohexyl)-amide] was 100%; that for `O=C(Nc1ccc(I)cc1)c1cc2nc(Nc3c(Cl)cccc3Cl)[nH]c2cc1Cl` [Example 57, 2-(2,6-Dichloro-phenylamino)-6-chloro-1H-benzimidazol-5-carboxylic acid (4-iodo-phenyl)-amide] was 96%. On the same count and under the same terms, the value for `NCCn1c(Nc2c(Cl)cccc2Cl)nc2cc(C(=O)Nc3cc(Cl)ccn3)ccc21` [Example 211, 2-(2,6-Dichloro-phenylamino)-1-(2-amino-ethyl)-1H-benzimidazole-5-carboxylic acid (4-chloro-pyridin-2-yl)-amide (trifluoroacetate)] was 100%; that for `O=C(NCCc1cccnc1)c1ccc2[nH]c(Nc3c(Cl)cccc3Cl)nc2c1` [Example 232, 2-(2,6-Dichloro-phenylamino)-1H-benzimidazole-5-carboxylic acid (2-pyridin-3-yl-ethyl)-amide] was 91%; that for `CS(=O)(=O)CCn1c(Nc2c(Cl)cccc2Cl)nc2cc(C(=O)Nc3cc(Cl)ccn3)ccc21` [Example 269, 2-(2,6-Dichloro-phenylamino)-1-(2-methanesulfonyl-ethyl)-1H-benzimidazole-5-carboxylic acid (4-chloro-pyridin-2-yl)-amide] was 85%. As to `Cn1c(Nc2c(Cl)cccc2Cl)nc2cc(C(=O)NC3CCc4ccccc4C3)c(F)cc21` (stereo not drawn) [Example 162, 2-(2,6-Dichloro-phenylamino)-6-fluoro-1-methyl-1H-benzimidazole-5-carboxylic acid (1,2,3,4-tetrahydro-naphthalen-2-yl)-amide], the inhibition at 10 µM worked out at 100%. For `Cc1cccc(NC(=O)c2ccc3c(c2)nc(Nc2c(Cl)cccc2Cl)n3C)n1` [compound 328], the inhibition at 10 µM came out at 95%. Still for that read-out and setting: the value for `CN(C)c1ccnc(NC(=O)c2ccc3c(c2)nc(Nc2c(Cl)cccc2Cl)n3C)c1` [compound 559] was 85%; that for `Cn1c(Nc2c(Cl)cccc2Cl)nc2cc(C(=O)NC3CCC(F)(F)CC3)c(F)cc21` [Example 156, 2-(2,6-Dichloro-phenylamino)-6-fluoro-1-methyl-1H-benzimidazole-5-carboxylic acid (4,4-difluoro-cyclohexyl)-amide] was 100%.

In the case of `Cn1c(Nc2c(F)cccc2Cl)nc2cc(C(=O)NCCC3CC3)c(F)cc21` [Example 502, 2-(2-Chloro-6-fluorophenylamino)-N-(2-cyclopropylethyl)-6-fluoro-1-methyl-1H-benzimidazole-5-carboxamide], the inhibition at 10 µM was found to be 96%. On to `Cc1ccccc1NC(=O)c1ccc2[nH]c(Nc3c(Cl)cccc3Cl)nc2c1` [Example 3, 2-(2,6-Dichloro-phenylamino)-1H-benzimidazole-5-carboxylic acid o-tolylamide], for which the inhibition at 10 µM stood at 95%.

On to `O=C(NC1CCC(F)(F)CC1)c1cc2[nH]c(Nc3c(Cl)cccc3Cl)nc2cc1F` [Example 149, 2-(2,6-Dichloro-phenylamino)-6-fluoro-3H-benzimidazole-5-carboxylic acid (4,4-difluoro-cyclohexyl)-amide], for which the inhibition at 10 µM turned out to be 100%. Regarding `Cn1c(Nc2c(Cl)cccc2Cl)nc2cc(C(=O)NCc3c(C(F)(F)F)ccc[n+]3[O-])c(F)cc21` [Example 568, 2-((2-(2,6-Dichlorophenylamino)-6-fluoro-1-methyl-1H-benzimidazole-5-carboxamido)methyl)-3-trifluoromethyl-pyridine 1-oxide], the inhibition at 10 µM came out at 60%.

`COc1cc2[nH]c(Nc3c(Cl)cccc3Cl)nc2cc1C(=O)NCc1ncccc1OC` [Example 525, 2-(2,6-Dichlorophenylamino)-6-methoxy-N-((3-methoxypyridin-2-yl)methyl)-1H-benzimidazole-5-carboxamide]: the inhibition at 10 µM was 98%. On to `Cn1c(Nc2c(F)cccc2Cl)nc2cc(C(=O)NCCCC3CC3)c(F)cc21` [Example 390, 2-(2-Chloro-6-fluorophenylamino)-N-(3-cyclopropylpropyl)-6-fluoro-1-methyl-1H-benzimidazole-5-carboxamide], for which the inhibition at 10 µM stood at 100%. The same measure, in the same setting: then `CC(C)NC(=O)c1cc(Br)c2c(c1)nc(Nc1c(Cl)cccc1Cl)n2C` [Example 353, 7-Bromo-2-(2,6-dichloro-phenylamino)-1-methyl-1H-benzimidazole-5-carboxylic acid isopropylamide], with 75%.
